Data from ChEMBL document CHEMBL1201862, “PubChem BioAssay data set” (2004).
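Grown in 96-well plates, cells were treated for 48 hours with each compound at five concentrations. Insufficient inhibition: endpoint recorded as highest concentration tested. GI50: concentration for 50% inhibition of growth.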 The source made the active and inactive calls. No stated cut-off is given here; in the data, active = GI50 up to about 1.1 µM and inactive = higher.

Key:
Experiment in all cases: DTP human tumour cell line panel, 48 h
Malme-3M = tested on: Malme-3M
786-0 = tested on: 786-0
MDA-MB-231 = tested on: MDA-MB-231
K562 = tested on: K562
SNB-75 = tested on: SNB-75
IGROV-1 = tested on: IGROV-1
HL-60 = tested on: HL-60
HCT-116 = tested on: HCT-116
T47D = tested on: T47D
A549 = tested on: A549
BT-549 = tested on: BT-549
SF-539 = tested on: SF-539
NCI/ADR-RES = tested on: NCI/ADR-RES
CCRF-CEM = tested on: CCRF-CEM
CAKI-1 = tested on: CAKI-1
RPMI-8226 = tested on: RPMI-8226
SF-268 = tested on: SF-268
SNB-19 = tested on: SNB-19
MDA-MB-435 = tested on: MDA-MB-435
KM12 = tested on: KM12
HCC 2998 = tested on: HCC 2998
MOLT-4 = tested on: MOLT-4
OVCAR-8 = tested on: OVCAR-8
MCF7 = tested on: MCF7
SK-MEL-5 = tested on: SK-MEL-5
U-251 = tested on: U-251
RXF 393 = tested on: RXF 393
SF-295 = tested on: SF-295
NCI-H460 = tested on: NCI-H460
OVCAR-3 = tested on: OVCAR-3
SK-OV-3 = tested on: SK-OV-3
HCT-15 = tested on: HCT-15
TK-10 = tested on: TK-10
DU-145 = tested on: DU-145
HOP-62 = tested on: HOP-62
NCI-H522 = tested on: NCI-H522
SW-620 = tested on: SW-620
HT-29 = tested on: HT-29
LOX IMVI = tested on: LOX IMVI
Hs-578T = tested on: Hs-578T
MDA-N = tested on: MDA-N
ACHN = tested on: ACHN
SR = tested on: SR
COLO 205 = tested on: COLO 205
NCI-H226 = tested on: NCI-H226
NCI-H23 = tested on: NCI-H23
PC-3 = tested on: PC-3
EKVX = tested on: EKVX
SK-MEL-28 = tested on: SK-MEL-28
UO-31 = tested on: UO-31
UACC-257 = tested on: UACC-257
SN12C = tested on: SN12C
HOP-92 = tested on: HOP-92
A498 = tested on: A498
M14 = tested on: M14
OVCAR-5 = tested on: OVCAR-5
SK-MEL-2 = tested on: SK-MEL-2
UACC-62 = tested on: UACC-62
OVCAR-4 = tested on: OVCAR-4

SMILES: O=C(O)Cc1cccc2c1OC(c1ccccc1)C(Cl)(C(=O)c1ccccc1)C2=O (configuration not stated)
- GI50 (Malme-3M): 18.2 µM (inactive)
- GI50 (786-0): 12.9 µM (inactive)
- GI50 (MDA-MB-231): 18.7 µM (inactive)
- GI50 (K562): 5.52 µM (inactive)
- GI50 (SNB-75): 19.1 µM (inactive)
- GI50 (IGROV-1): 15.6 µM (inactive)
- GI50 (HL-60): 11.9 µM (inactive)
- GI50 (HCT-116): 15.1 µM (inactive)
- GI50 (T47D): 16.9 µM (inactive)
- GI50 (A549): 29.4 µM (inactive)
- GI50 (BT-549): 43 µM (inactive)
- GI50 (SF-539): 31.6 µM (inactive)
- GI50 (NCI/ADR-RES): 22.2 µM (inactive)
- GI50 (CCRF-CEM): 3.21 µM (inactive)
- GI50 (CAKI-1): 17.8 µM (inactive)
- GI50 (RPMI-8226): 17.4 µM (inactive)
- GI50 (SF-268): 27.9 µM (inactive)
- GI50 (SNB-19): 40.1 µM (inactive)
- GI50 (MDA-MB-435): 15.8 µM (inactive)
- GI50 (KM12): 18.5 µM (inactive)
- GI50 (HCC 2998): 13.2 µM (inactive)
- GI50 (MOLT-4): 22.4 µM (inactive)
- GI50 (OVCAR-8): 22.2 µM (inactive)
- GI50 (MCF7): 6.01 µM (inactive)
- GI50 (SK-MEL-5): 15.3 µM (inactive)
- GI50 (U-251): 17.2 µM (inactive)
- GI50 (RXF 393): > 10 µM (inactive)
- GI50 (SF-295): 23 µM (inactive)
- GI50 (NCI-H460): 19.9 µM (inactive)
- GI50 (OVCAR-3): 17.7 µM (inactive)
- GI50 (SK-OV-3): > 100 µM (inactive)
- GI50 (HCT-15): 14.4 µM
- GI50 (TK-10): 21.8 µM (inactive)
- GI50 (DU-145): 24.4 µM (inactive)
- GI50 (HOP-62): 20.3 µM (inactive)
- GI50 (NCI-H522): 14.2 µM (inactive)
- GI50 (SW-620): 9.33 µM (inactive)
- GI50 (HT-29): 16.4 µM (inactive)
- GI50 (LOX IMVI): 14.4 µM (inactive)
- GI50 (Hs-578T): 35 µM (inactive)
- GI50 (MDA-N): 14.4 µM (inactive)
- GI50 (ACHN): 14 µM (inactive)
- GI50 (SR): 20.4 µM (inactive)
- GI50 (COLO 205): > 10 µM (inactive)
- GI50 (NCI-H226): 30.1 µM (inactive)
- GI50 (NCI-H23): 16.1 µM (inactive)
- GI50 (PC-3): 11.4 µM (inactive)
- GI50 (EKVX): 21.5 µM (inactive)
- GI50 (SK-MEL-28): 15.6 µM (inactive)
- GI50 (UO-31): 17.4 µM (inactive)
- GI50 (UACC-257): 15.3 µM (inactive)
- GI50 (SN12C): 10.5 µM (inactive)

SMILES: O=c1[nH]c(=O)n2n1C1C=CC2CC1
- GI50 (786-0): > 100 µM (inactive)
- GI50 (MDA-MB-231): > 100 µM (inactive)
- GI50 (K562): > 100 µM (inactive)
- GI50 (SNB-75): > 100 µM (inactive)
- GI50 (IGROV-1): > 100 µM (inactive)
- GI50 (HL-60): > 100 µM (inactive)
- GI50 (HCT-116): > 100 µM (inactive)
- GI50 (T47D): > 100 µM (inactive)
- GI50 (A549): > 100 µM (inactive)
- GI50 (BT-549): > 100 µM (inactive)
- GI50 (SF-539): > 100 µM (inactive)
- GI50 (NCI/ADR-RES): > 100 µM (inactive)
- GI50 (CCRF-CEM): > 100 µM (inactive)
- GI50 (CAKI-1): > 100 µM (inactive)
- GI50 (HOP-92): > 100 µM (inactive)
- GI50 (RPMI-8226): > 100 µM (inactive)
- GI50 (SF-268): > 100 µM (inactive)
- GI50 (SNB-19): > 100 µM (inactive)
- GI50 (MDA-MB-435): > 100 µM (inactive)
- GI50 (KM12): > 100 µM (inactive)
- GI50 (MOLT-4): > 100 µM (inactive)
- GI50 (A498): > 100 µM (inactive)
- GI50 (OVCAR-8): > 100 µM (inactive)
- GI50 (MCF7): > 100 µM (inactive)
- GI50 (SK-MEL-5): > 100 µM (inactive)
- GI50 (U-251): > 100 µM (inactive)
- GI50 (SF-295): > 100 µM (inactive)
- GI50 (NCI-H460): > 100 µM (inactive)
- GI50 (OVCAR-3): > 100 µM (inactive)
- GI50 (SK-OV-3): > 100 µM (inactive)
- GI50 (HCT-15): > 100 µM
- GI50 (M14): > 100 µM (inactive)
- GI50 (TK-10): > 100 µM (inactive)
- GI50 (DU-145): > 100 µM (inactive)
- GI50 (OVCAR-5): > 100 µM (inactive)
- GI50 (SK-MEL-2): > 100 µM (inactive)
- GI50 (HOP-62): > 100 µM (inactive)
- GI50 (UACC-62): > 100 µM (inactive)
- GI50 (SW-620): > 100 µM (inactive)
- GI50 (HT-29): > 100 µM (inactive)
- GI50 (LOX IMVI): > 100 µM (inactive)
- GI50 (Hs-578T): > 100 µM (inactive)
- GI50 (MDA-N): > 100 µM (inactive)
- GI50 (ACHN): > 100 µM (inactive)
- GI50 (SR): > 100 µM (inactive)
- GI50 (COLO 205): > 100 µM (inactive)
- GI50 (NCI-H226): > 100 µM (inactive)
- GI50 (NCI-H23): > 100 µM (inactive)
- GI50 (PC-3): > 100 µM (inactive)
- GI50 (EKVX): > 100 µM (inactive)
- GI50 (SK-MEL-28): > 100 µM (inactive)
- GI50 (UO-31): > 100 µM (inactive)
- GI50 (UACC-257): > 100 µM (inactive)
- GI50 (SN12C): > 100 µM (inactive)

SMILES: COc1cc2ccc(C(=O)NCCCNC(=O)c3ccc4cc(OC)c(OC)cc4c3)cc2cc1OC
- GI50 (Malme-3M): > 100 µM (inactive)
- GI50 (786-0): > 100 µM (inactive)
- GI50 (MDA-MB-231): 97.1 µM (inactive)
- GI50 (K562): > 100 µM (inactive)
- GI50 (SNB-75): 32.9 µM (inactive)
- GI50 (IGROV-1): > 100 µM (inactive)
- GI50 (HL-60): > 100 µM (inactive)
- GI50 (HCT-116): > 100 µM (inactive)
- GI50 (T47D): > 100 µM (inactive)
- GI50 (A549): > 100 µM (inactive)
- GI50 (BT-549): > 100 µM (inactive)
- GI50 (SF-539): 53.3 µM (inactive)
- GI50 (NCI/ADR-RES): > 100 µM (inactive)
- GI50 (CCRF-CEM): > 100 µM (inactive)
- GI50 (CAKI-1): > 100 µM (inactive)
- GI50 (HOP-92): > 100 µM (inactive)
- GI50 (SF-268): > 100 µM (inactive)
- GI50 (SNB-19): > 100 µM (inactive)
- GI50 (MDA-MB-435): > 100 µM (inactive)
- GI50 (KM12): > 100 µM (inactive)
- GI50 (HCC 2998): > 100 µM (inactive)
- GI50 (A498): > 100 µM (inactive)
- GI50 (OVCAR-8): > 100 µM (inactive)
- GI50 (MCF7): > 100 µM (inactive)
- GI50 (SK-MEL-5): > 100 µM (inactive)
- GI50 (U-251): > 100 µM (inactive)
- GI50 (SF-295): > 100 µM (inactive)
- GI50 (NCI-H460): 33.7 µM (inactive)
- GI50 (OVCAR-3): > 100 µM (inactive)
- GI50 (SK-OV-3): > 100 µM (inactive)
- GI50 (HCT-15): > 100 µM
- GI50 (M14): > 100 µM (inactive)
- GI50 (TK-10): > 100 µM (inactive)
- GI50 (DU-145): > 100 µM (inactive)
- GI50 (OVCAR-5): > 100 µM (inactive)
- GI50 (SK-MEL-2): > 100 µM (inactive)
- GI50 (HOP-62): > 100 µM (inactive)
- GI50 (UACC-62): > 100 µM (inactive)
- GI50 (NCI-H522): > 100 µM (inactive)
- GI50 (SW-620): > 100 µM (inactive)
- GI50 (HT-29): > 100 µM (inactive)
- GI50 (LOX IMVI): > 100 µM (inactive)
- GI50 (Hs-578T): 36.6 µM (inactive)
- GI50 (MDA-N): > 100 µM (inactive)
- GI50 (ACHN): > 100 µM (inactive)
- GI50 (OVCAR-4): 57.8 µM (inactive)
- GI50 (SR): 35.5 µM (inactive)
- GI50 (COLO 205): > 100 µM (inactive)
- GI50 (NCI-H226): > 100 µM (inactive)
- GI50 (NCI-H23): > 100 µM (inactive)
- GI50 (PC-3): > 100 µM (inactive)
- GI50 (EKVX): > 100 µM (inactive)
- GI50 (SK-MEL-28): > 100 µM (inactive)
- GI50 (UO-31): > 100 µM (inactive)
- GI50 (UACC-257): > 100 µM (inactive)
- GI50 (SN12C): > 100 µM (inactive)
